Laboratory results taken from article PMC11672292, “Discovery of Balasubramide Derivative with Tissue‐Specific Anti‐Inflammatory Activity Against Acute Lung Injury by Targeting VDAC1” (Advanced Science, 2024).
Like-named read-outs stand apart in the source and are kept apart here.

Experiments:
RAW264.7 cells = test: CCK-8 cell viability assay; assay type: cell-based, mouse; settings: 10 μM, 24 h
Method: Cell viability was determined by CCK‐8 assay. RAW264.7 cells or mouse BMDMs cultured in a 96‐well plate were pretreated with various compounds at 10 µM or different concentrations of (+)3C‐20 for 24 h when cells reached 70% confluence and then were treated with DMEM containing 5 µL CCK‐8 reagent (A311, Vazyme, China) in a humidified atmosphere of 5% CO2 and 95% air for 1 h at 37 °C. The UV absorption values of the medium with CCK‐8 were measured at 450 nm in a ThermoFisher plate‐reader (VL0L0TD2, Waltham, USA).

[1] = Pharmacokinetics and tissue distribution after single intravenous administration; assay type: in vivo, mouse; settings: ICR, mouse, iv, mice; for Kp: read-out: Tissues/plasma ratio
Method: Pharmacokinetic studies were performed as previously described.^[ [63] ^] Briefly, ICR mice were fasted without water for 16 h before drug administration and allowed access to food and water freely after administration. After given a single intravenous administration of (+)3C‐20 (10 mg kg^−1), mice were anesthetized with isoflurane, and blood samples were collected through jugular vein at different time points (0, 0.083, 0.25, 0.5, 1, 2, 4, 6, 8, 24 h), as well as at different time points (0.5, 2, 6, 24 h) mice were euthanized and brain, heart, liver, spleen, lung, and kidney were collected. Blood samples were collected in tubes containing sodium heparin and centrifuged at 5000 rpm at 4 °C for 10 min to prepare plasma, tissues were cleaned in prechilled saline and homogenized to be tested, and all samples were stored at […]. LC‐MS/MS was performed to determine the concentrations of (+)3C‐20 in the plasma and tissues of the mice and to calculate the related pharmacokinetic parameters, which were then used to investigate the pharmacokinetic characteristics and tissue distribution of (+)3C‐20 in mice.

[2] = brain, single i.v. 10 mg/kg, read-out: Concentration of (+)3C-20, Brain
[3] = heart, single i.v. 10 mg/kg, read-out: Concentration of (+)3C-20, Heart

Q: For `O=C(CCc1ccc(C(F)(F)F)cc1)O[C@@H]1C(=O)NCCc2c([nH]c3ccccc23)[C@H]1c1ccc(C(F)(F)F)cc1` [(+)3C-20], which cell viability (RAW264.7 cells) is on record?
A: Its cell viability is 103.97 ± 3.88.

Q: What about the concentration at 0.5 h [1, 2] of the same molecule?
A: Its concentration at 0.5 h is 518 ± 66 ng/g.

Q: And the concentration at 2 h [1, 2]?
A: The concentration at 2 h was 317 ± 86.1 ng/g.

Q: And the concentration at 6 h [1, 2]?
A: The concentration at 6 h was 113 ± 11.8 ng/g.

Q: What about the concentration at 0.5 h [1, 3] of the same molecule?
A: Its concentration at 0.5 h is 4510 ± 630 ng/g.

Q: And the concentration at 2 h [1, 3]?
A: The concentration at 2 h was 1270 ± 335 ng/g.

Q: And the concentration at 6 h [1, 3]?
A: Its concentration at 6 h is 123 ± 12.7 ng/g.

Q: And the half-life ([1]; i.v. 10 mg kg^−1, serum and plasma, read-out: average half-life (converted))?
A: Its half-life is 5.3 ± 0.3 h.

Q: What about the AUC(0-inf) ([1]; single i.v. 10 mg/kg, Blood) of the same molecule?
A: Its AUC(0-inf) is 3600 ng·h/mL.

Q: And the AUC(0-t) ([1]; single i.v. 10 mg/kg, Blood)?
A: The AUC(0-t) was 3470 ng·h/mL.

Q: And the C0 ([1]; single i.v. 10 mg/kg, Blood)?
A: The C0 was 3950 ng/mL.

Q: And the Cmax ([1]; single i.v. 10 mg/kg, Blood)?
A: Its Cmax is 2340 ng/mL.

Q: What about the clearance ([1]; single i.v. 10 mg/kg, Blood) of the same molecule?
A: The clearance was 46.4 mL/min/kg.

Q: What about the k el ([1]; single i.v. 10 mg/kg, Blood) of the same molecule?
A: The k el was 3.36e-05 s⁻¹.

Q: What about the Vd ([1]; single i.v. 10 mg/kg, Blood, read-out: VdSS) of the same molecule?
A: The Vd was 12.3 L/kg.

Q: What about the half-life ([1]; single i.v. 10 mg/kg, Blood, read-out: t1/2 (converted)) of the same molecule?
A: Its half-life is 5.72 h.

Q: And the AUC(0-inf) ([1]; single i.v. 10 mg/kg, Brain)?
A: The AUC(0-inf) was 3160 ng·h/mL.

Q: What about the AUC(0-t) ([1]; single i.v. 10 mg/kg, Brain) of the same molecule?
A: The AUC(0-t) was 2980 ng·h/mL.

Q: And the C0 ([1]; single i.v. 10 mg/kg, Brain)?
A: The C0 was 610 ng/mL.

Q: What about the Cmax ([1]; single i.v. 10 mg/kg, Brain) of the same molecule?
A: Its Cmax is 518 ng/mL.

Q: What about the k el ([1]; single i.v. 10 mg/kg, Brain) of the same molecule?
A: The k el was 3.44e-05 s⁻¹.

Q: And the Kp ([1]; single i.v. 10 mg/kg, Brain)?
A: The Kp was 0.699.

Q: What about the half-life ([1]; single i.v. 10 mg/kg, Brain, read-out: t1/2 (converted)) of the same molecule?
A: The half-life was 5.57 h.

Q: What about the AUC(0-inf) ([1]; single i.v. 10 mg/kg, Heart) of the same molecule?
A: The AUC(0-inf) was 10200 ng·h/mL.

Q: What about the AUC(0-t) ([1]; single i.v. 10 mg/kg, Heart) of the same molecule?
A: Its AUC(0-t) is 9980 ng·h/mL.

Q: And the C0 ([1]; single i.v. 10 mg/kg, Heart)?
A: The C0 was 6890 ng/mL.

Q: And the Cmax ([1]; single i.v. 10 mg/kg, Heart)?
A: The Cmax was 4510 ng/mL.

Q: What about the k el ([1]; single i.v. 10 mg/kg, Heart) of the same molecule?
A: Its k el is 0.000178 s⁻¹.

Q: And the Kp ([1]; single i.v. 10 mg/kg, Heart)?
A: The Kp was 2.34.

Q: What about the half-life ([1]; single i.v. 10 mg/kg, Heart, read-out: t1/2 (converted)) of the same molecule?
A: The half-life was 1.08 h.

Q: And the AUC(0-inf) ([1]; single i.v. 10 mg/kg, Kidney)?
A: The AUC(0-inf) was 3980 ng·h/mL.

Q: And the AUC(0-t) ([1]; single i.v. 10 mg/kg, Kidney)?
A: The AUC(0-t) was 3780 ng·h/mL.

Q: And the C0 ([1]; single i.v. 10 mg/kg, Kidney)?
A: The C0 was 1960 ng/mL.

Q: What about the Cmax ([1]; single i.v. 10 mg/kg, Kidney) of the same molecule?
A: Its Cmax is 1450 ng/mL.

Q: What about the k el ([1]; single i.v. 10 mg/kg, Kidney) of the same molecule?
A: The k el was 0.000134 s⁻¹.

Q: What about the Kp ([1]; single i.v. 10 mg/kg, Kidney) of the same molecule?
A: Its Kp is 0.885.

Q: And the half-life ([1]; single i.v. 10 mg/kg, Kidney, read-out: t1/2 (converted))?
A: Its half-life is 1.44 h.

Q: And the AUC(0-inf) ([1]; single i.v. 10 mg/kg, Liver)?
A: Its AUC(0-inf) is 15500 ng·h/mL.

Q: And the AUC(0-t) ([1]; single i.v. 10 mg/kg, Liver)?
A: Its AUC(0-t) is 14900 ng·h/mL.

Q: What about the C0 ([1]; single i.v. 10 mg/kg, Liver) of the same molecule?
A: Its C0 is 6050 ng/mL.

Q: And the Cmax ([1]; single i.v. 10 mg/kg, Liver)?
A: Its Cmax is 5010 ng/mL.

Q: And the k el ([1]; single i.v. 10 mg/kg, Liver)?
A: Its k el is 0.000145 s⁻¹.

Q: What about the Kp ([1]; single i.v. 10 mg/kg, Liver) of the same molecule?
A: The Kp was 3.5.

Q: And the half-life ([1]; single i.v. 10 mg/kg, Liver, read-out: t1/2 (converted))?
A: Its half-life is 1.33 h.

Q: What about the AUC(0-inf) ([1]; single i.v. 10 mg/kg, Lung) of the same molecule?
A: The AUC(0-inf) was 22200 ng·h/mL.

Q: What about the AUC(0-t) ([1]; single i.v. 10 mg/kg, Lung) of the same molecule?
A: Its AUC(0-t) is 22100 ng·h/mL.

Q: What about the C0 ([1]; single i.v. 10 mg/kg, Lung) of the same molecule?
A: The C0 was 11700 ng/mL.

Q: And the Cmax ([1]; single i.v. 10 mg/kg, Lung)?
A: Its Cmax is 7780 ng/mL.

Q: What about the k el ([1]; single i.v. 10 mg/kg, Lung) of the same molecule?
A: Its k el is 5.39e-05 s⁻¹.

Q: And the Kp ([1]; single i.v. 10 mg/kg, Lung)?
A: The Kp was 5.17.

Q: What about the half-life ([1]; single i.v. 10 mg/kg, Lung, read-out: t1/2 (converted)) of the same molecule?
A: The half-life was 3.58 h.

Q: What about the AUC(0-inf) ([1]; single i.v. 10 mg/kg, Plasma) of the same molecule?
A: The AUC(0-inf) was 4770 ng·h/mL.

Q: And the AUC(0-t) ([1]; single i.v. 10 mg/kg, Plasma)?
A: Its AUC(0-t) is 4700 ng·h/mL.

Q: What about the C0 ([1]; single i.v. 10 mg/kg, Plasma) of the same molecule?
A: Its C0 is 6280 ng/mL.

Q: And the Cmax ([1]; single i.v. 10 mg/kg, Plasma)?
A: Its Cmax is 4010 ng/mL.
